Tests used:
[1] = biological target: T1, Testis-specific serine/threonine-protein kinase 2 (Homo sapiens) (UniProt Q96PF2); assay: Inhibition of human full length TSSK2 expressed in baculovirus assessed as substrate phosphorylation using fluorescence-labelled peptides as substrate at 0.06 uM after 90 mins by microfluidic peptide phosphorylation assay
T1 sequence (whole entry): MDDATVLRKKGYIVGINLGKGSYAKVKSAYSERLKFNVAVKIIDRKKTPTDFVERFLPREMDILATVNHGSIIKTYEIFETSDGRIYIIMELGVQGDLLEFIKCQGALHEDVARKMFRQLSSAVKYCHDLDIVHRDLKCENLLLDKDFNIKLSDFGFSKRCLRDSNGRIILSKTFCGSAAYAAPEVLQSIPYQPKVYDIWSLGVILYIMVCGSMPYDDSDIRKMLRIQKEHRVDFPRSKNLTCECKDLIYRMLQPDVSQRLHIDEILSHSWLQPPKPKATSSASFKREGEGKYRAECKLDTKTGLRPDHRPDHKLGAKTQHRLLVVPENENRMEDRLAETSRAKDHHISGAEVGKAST

[2] = biological target: Casein kinase I isoform alpha (Homo sapiens) (UniProt P48729); assay: Inhibition of human full length CSNK1A1 expressed in baculovirus assessed as substrate phosphorylation using fluorescence-labelled peptides as substrate at 0.06 uM after 90 mins by microfluidic peptide phosphorylation assay
[3] = biological target: T2, MAP kinase-activated protein kinase 5 (Homo sapiens) (UniProt Q8IW41); assay: Inhibition of human full length PRAK expressed in baculovirus assessed as substrate phosphorylation using fluorescence-labelled peptides as substrate at 0.2 uM after 90 mins by microfluidic peptide phosphorylation assay
T2 sequence (whole entry): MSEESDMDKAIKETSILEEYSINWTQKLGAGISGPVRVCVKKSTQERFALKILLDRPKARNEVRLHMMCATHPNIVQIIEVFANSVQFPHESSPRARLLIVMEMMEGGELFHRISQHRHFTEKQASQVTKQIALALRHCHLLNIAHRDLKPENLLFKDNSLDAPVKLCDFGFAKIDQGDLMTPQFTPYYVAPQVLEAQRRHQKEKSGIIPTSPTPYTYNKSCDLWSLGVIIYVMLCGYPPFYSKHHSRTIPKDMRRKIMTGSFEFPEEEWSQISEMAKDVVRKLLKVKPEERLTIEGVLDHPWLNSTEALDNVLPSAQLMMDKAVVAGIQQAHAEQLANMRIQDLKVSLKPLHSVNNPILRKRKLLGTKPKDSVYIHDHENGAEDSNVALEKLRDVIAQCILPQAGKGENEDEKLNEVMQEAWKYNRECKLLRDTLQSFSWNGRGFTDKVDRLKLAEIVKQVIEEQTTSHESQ

[4] = biological target: Mitogen-activated protein kinase 1 (Homo sapiens) (UniProt P28482); assay: Inhibition of human full length ERK2 expressed in Escherichia coli cell assessed as substrate phosphorylation using fluorescence-labelled peptides as substrate at 0.2 uM after 90 mins by microfluidic peptide phosphorylation assay
[5] = biological target: T3, Serine/threonine-protein kinase DCLK2 (Homo sapiens) (UniProt Q8N568); assay: Inhibition of human full length DCAMKL2 expressed in baculovirus assessed as substrate phosphorylation using fluorescence-labelled peptides as substrate at […] after 90 mins by microfluidic peptide phosphorylation assay
T3 sequence (whole entry): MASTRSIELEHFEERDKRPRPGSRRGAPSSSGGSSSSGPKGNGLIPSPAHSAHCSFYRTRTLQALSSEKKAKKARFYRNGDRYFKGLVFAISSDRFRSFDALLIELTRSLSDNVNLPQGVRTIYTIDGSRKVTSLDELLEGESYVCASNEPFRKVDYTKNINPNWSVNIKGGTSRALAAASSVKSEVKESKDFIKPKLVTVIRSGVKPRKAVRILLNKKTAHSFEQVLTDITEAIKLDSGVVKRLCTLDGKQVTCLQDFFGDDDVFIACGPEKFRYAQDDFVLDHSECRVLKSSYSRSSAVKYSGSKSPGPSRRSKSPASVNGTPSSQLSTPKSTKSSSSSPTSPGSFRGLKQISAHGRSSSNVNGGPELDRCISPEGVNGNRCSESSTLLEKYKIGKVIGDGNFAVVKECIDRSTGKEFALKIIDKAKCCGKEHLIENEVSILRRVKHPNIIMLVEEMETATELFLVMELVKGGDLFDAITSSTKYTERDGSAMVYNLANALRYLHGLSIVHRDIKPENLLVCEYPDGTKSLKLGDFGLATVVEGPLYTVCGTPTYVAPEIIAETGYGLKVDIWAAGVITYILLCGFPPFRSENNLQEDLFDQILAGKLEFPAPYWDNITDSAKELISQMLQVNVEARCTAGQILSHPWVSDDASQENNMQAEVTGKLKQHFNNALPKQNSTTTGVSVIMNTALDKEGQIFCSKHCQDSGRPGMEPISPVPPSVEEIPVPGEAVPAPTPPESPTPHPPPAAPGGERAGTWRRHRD

[6] = test system: Tyrosine-protein kinase ABL1 (Homo sapiens), P00519 [Q252H]; assay: Inhibition of human truncated ABL Q252H mutant expressed in baculovirus assessed as substrate phosphorylation using fluorescence-labelled peptides as substrate at 9 uM after 90 mins by microfluidic peptide phosphorylation assay
[7] = biological target: T4, Serine/threonine-protein kinase Sgk1 (Homo sapiens) (UniProt O00141); details: 0.1 uM
T4 sequence (whole entry): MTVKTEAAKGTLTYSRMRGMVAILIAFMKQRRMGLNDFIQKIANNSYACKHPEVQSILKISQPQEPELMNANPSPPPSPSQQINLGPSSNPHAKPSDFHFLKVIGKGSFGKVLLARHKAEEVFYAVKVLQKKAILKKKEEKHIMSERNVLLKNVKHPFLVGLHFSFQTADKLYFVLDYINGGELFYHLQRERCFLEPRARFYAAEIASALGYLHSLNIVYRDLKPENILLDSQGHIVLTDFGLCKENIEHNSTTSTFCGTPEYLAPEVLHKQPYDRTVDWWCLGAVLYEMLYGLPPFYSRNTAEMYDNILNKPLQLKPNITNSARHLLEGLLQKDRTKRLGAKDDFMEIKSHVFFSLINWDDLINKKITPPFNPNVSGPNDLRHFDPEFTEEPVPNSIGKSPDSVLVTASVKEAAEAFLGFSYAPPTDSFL
Description: Inhibition of human truncated SGK1 expressed in baculovirus assessed as substrate phosphorylation using fluorescence-labelled peptides as substrate at 0.1 uM after 90 mins by microfluidic peptide phosphorylation assay

[8] = test system: Tyrosine-protein kinase ABL1 (Homo sapiens), P00519 [Q252H]; assay: Inhibition of human truncated ABL Q252H mutant expressed in baculovirus assessed as substrate phosphorylation using fluorescence-labelled peptides as substrate at 0.1 uM after 90 mins by microfluidic peptide phosphorylation assay
[9] = biological target: Serine/threonine-protein kinase pim-1 (Homo sapiens) (UniProt P11309); assay: Inhibition of human full length PIM1 expressed in baculovirus assessed as substrate phosphorylation using fluorescence-labelled peptides as substrate at 0.1 uM after 90 mins by microfluidic peptide phosphorylation assay
[10] = test system: Tyrosine-protein kinase ABL1 (Homo sapiens), P00519 [Q252H]; assay: Inhibition of human truncated ABL Q252H mutant expressed in baculovirus assessed as substrate phosphorylation using fluorescence-labelled peptides as substrate at 95 uM after 90 mins by microfluidic peptide phosphorylation assay
[11] = biological target: Epidermal growth factor receptor (Homo sapiens) (UniProt P00533); assay: Inhibition of human EGFR catalytic domain expressed in baculovirus assessed as substrate phosphorylation using fluorescence-labelled peptides as substrate at 1000 uM after 90 mins by microfluidic peptide phosphorylation assay
Chain of Epidermal growth factor receptor (Homo sapiens) (P00533 whole entry, the tested form may be a part): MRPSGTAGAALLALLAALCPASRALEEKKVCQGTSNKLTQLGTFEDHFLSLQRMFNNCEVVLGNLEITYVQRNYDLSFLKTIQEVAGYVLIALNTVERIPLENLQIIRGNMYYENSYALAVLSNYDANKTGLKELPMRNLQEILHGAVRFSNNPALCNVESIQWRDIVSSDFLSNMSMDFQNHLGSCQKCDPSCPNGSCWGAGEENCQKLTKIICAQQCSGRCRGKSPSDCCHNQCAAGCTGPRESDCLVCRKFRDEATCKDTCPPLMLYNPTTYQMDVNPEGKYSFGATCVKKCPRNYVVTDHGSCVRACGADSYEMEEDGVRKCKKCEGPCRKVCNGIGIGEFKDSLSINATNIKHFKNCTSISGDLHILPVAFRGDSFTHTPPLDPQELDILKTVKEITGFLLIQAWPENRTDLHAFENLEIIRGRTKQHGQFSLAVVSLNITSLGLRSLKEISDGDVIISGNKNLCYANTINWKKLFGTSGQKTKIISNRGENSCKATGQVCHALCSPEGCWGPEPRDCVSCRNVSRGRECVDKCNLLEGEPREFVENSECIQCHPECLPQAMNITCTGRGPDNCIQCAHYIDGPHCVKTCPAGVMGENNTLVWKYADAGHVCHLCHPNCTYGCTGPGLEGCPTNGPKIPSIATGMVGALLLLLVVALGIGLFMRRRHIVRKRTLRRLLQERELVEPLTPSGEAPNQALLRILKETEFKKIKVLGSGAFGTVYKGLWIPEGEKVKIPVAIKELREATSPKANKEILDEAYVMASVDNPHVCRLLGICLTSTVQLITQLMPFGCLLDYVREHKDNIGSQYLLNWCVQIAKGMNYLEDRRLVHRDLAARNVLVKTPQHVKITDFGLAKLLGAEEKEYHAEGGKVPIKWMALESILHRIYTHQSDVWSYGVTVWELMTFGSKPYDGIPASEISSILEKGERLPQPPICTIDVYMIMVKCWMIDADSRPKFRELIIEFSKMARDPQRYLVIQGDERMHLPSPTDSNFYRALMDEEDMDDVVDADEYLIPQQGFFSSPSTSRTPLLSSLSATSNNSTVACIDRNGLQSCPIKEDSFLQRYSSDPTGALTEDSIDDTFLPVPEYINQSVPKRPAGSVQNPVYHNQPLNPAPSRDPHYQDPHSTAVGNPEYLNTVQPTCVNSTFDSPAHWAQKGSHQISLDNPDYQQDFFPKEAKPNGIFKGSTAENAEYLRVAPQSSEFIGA

Chain of Casein kinase I isoform alpha (Homo sapiens) (P48729 2-337 limits assumed): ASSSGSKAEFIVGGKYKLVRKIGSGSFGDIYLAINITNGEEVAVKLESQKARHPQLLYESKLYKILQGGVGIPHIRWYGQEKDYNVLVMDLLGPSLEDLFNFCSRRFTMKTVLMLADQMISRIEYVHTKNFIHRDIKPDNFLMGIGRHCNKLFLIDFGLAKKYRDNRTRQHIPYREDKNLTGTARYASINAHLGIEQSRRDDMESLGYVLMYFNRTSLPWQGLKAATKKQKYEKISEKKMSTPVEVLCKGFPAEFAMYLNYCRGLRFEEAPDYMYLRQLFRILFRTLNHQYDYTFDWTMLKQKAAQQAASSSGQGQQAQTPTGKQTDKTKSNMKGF
Chain of Mitogen-activated protein kinase 1 (Homo sapiens) (P28482 whole entry): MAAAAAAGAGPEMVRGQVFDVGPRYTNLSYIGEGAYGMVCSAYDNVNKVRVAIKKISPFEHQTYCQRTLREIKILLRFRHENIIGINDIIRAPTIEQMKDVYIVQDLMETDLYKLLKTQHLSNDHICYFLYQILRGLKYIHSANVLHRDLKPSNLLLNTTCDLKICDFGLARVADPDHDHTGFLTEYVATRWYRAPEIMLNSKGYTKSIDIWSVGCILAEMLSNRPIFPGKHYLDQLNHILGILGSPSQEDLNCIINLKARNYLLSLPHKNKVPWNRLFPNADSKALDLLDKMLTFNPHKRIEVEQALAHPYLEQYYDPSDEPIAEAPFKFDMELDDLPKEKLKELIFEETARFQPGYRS
Chain of Serine/threonine-protein kinase pim-1 (Homo sapiens) (P11309 whole entry, looked up, the tested form may be a part): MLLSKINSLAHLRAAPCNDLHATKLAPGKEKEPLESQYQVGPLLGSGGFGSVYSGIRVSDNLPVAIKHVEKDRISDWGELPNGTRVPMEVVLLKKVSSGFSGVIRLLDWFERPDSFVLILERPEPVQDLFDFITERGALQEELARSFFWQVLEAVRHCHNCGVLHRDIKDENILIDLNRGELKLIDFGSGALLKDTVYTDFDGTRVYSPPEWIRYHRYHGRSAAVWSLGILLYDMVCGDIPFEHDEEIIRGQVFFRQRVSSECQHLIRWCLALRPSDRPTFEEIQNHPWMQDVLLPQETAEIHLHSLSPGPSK

With `NC1(Cc2ccc(Cl)cc2)CCN(c2ncnc3[nH]ccc23)CC1` the inhibition [1] was 3% and the inhibition [2] was 1%.
With `Clc1ccc(C2(c3ccc(-c4ncnc5[nH]cnc45)cc3)CCNCC2)cc1` the inhibition [3] was 8.5% and the inhibition [4] was 7%.
Work on `COC(=O)c1cnc(Nc2cnc(C#N)cn2)cc1NCC1CCNCC1` yielded an inhibition [5] of 4.5%.
In the case of `NCC1CN(c2ncnc3[nH]c4cnccc4c23)CCO1` (stereo unspecified), the inhibition [6] is reported as 6%.
Work on `C[C@H](CN(C)C)Oc1nc(Nc2cc3cccc(Cl)c3cn2)cnc1C#N` yielded an inhibition [7] of 0%, an inhibition [8] of 4% and an inhibition [9] of 9.5%.
For `NCCc1ccc(-c2ncnc3[nH]cnc23)cc1`, the inhibition [10] was 67.5%.
Molecule `c1cnc2[nH]ccc2c1` has an inhibition [11] of 13.5%.

From ChEMBL document CHEMBL3132769, “Fragment growing to retain or alter the selectivity of anchored kinase hinge-binding fragments” (Medchemcomm, 2014)
